Assays:
Assay type in all cases: functional
Rattus norvegicus [1] = assay: Compound was tested for inhibition of T-wave elevation in lysine-Vasopressin -Induced-Angina Pectoris model in rats when administered intraperitoneally.; details: for minimal effective dose: Rattus norvegicus, ip, read-out: MED
Rattus norvegicus [2] = assay: Compound was tested for inhibition of T-wave elevation in lysine-Vasopressin -Induced-Angina Pectoris model in rats when administered perorally; details: po, read-out: MED
Canis familiaris [3] = species on record: Canis familiaris; assay: Minimum effective dose in propanol induced heart failure in left ventricular end diastolic pressure model of dog when dose given intradermally; details: Canis lupus familiaris, Heart left ventricle; read-out: MED
Canis familiaris [4] = species on record: Canis familiaris; assay: Minimum effective dose in […] induced heart failure in left ventricular end diastolic pressure model of dog; details: Canis lupus familiaris, Heart left ventricle; read-out: MED

Row | Compound | minimal effective dose (Rattus norvegicus [1]) | minimal effective dose (Rattus norvegicus [2]) | further results
1 | O=[N+]([O-])O[C@@H]1CO[C@H]2[C@@H]1OC[C@H]2N1CCN(CCCSc2ccccc2)CC1 | > 25 mg/kg |  | 
2 | O=[N+]([O-])O[C@H]1CO[C@H]2[C@@H]1OC[C@H]2N1CCN(CCCSc2ccccc2)CC1 |  |  | MED (Rattus norvegicus [1]): >25 mg/kg
3 | O=[N+]([O-])O[C@@H]1CO[C@H]2[C@@H]1OC[C@@H]2N1CCN(CCCSc2ccccc2)CC1 | > 25 mg/kg | > 30 mg/kg | 
4 | O=[N+]([O-])O[C@H]1CO[C@@H]2C(N3CCN(CCCSc4ccccc4)CC3)CO[C@H]12 (single isomer, unassigned) | 12.5 mg/kg | 10 mg/kg | minimal effective dose (Canis familiaris [3]): 0.1 mg/kg
5 | O=[N+]([O-])O[C@H]1CO[C@H]2[C@@H]1OC[C@H]2O[N+](=O)[O-] [ISOSORBIDE DINITRATE] |  |  | minimal effective dose (Canis familiaris [4]): > 0.3 mg/kg

— ChEMBL document CHEMBL1126341, “Synthesis of stereoisomers of 1,4:3,6-dianhydrohexitol nitrate derivative, KF-14124” (1992)
